Assay: xn = mol fraction of the nth substance listed

CCCCn1cc[n+](C)c1.F[P-](F)(F)(F)(F)F + CC#N
298.15 K, 101 kPa
Details	viscosity [mPa·s]
x2 = 0.1938	92.9
x2 = 0.5896	8.84

Clc1ccccc1 + CC#N
viscosity [mPa·s], 101 kPa
Details	298.15 K	303.15 K	308.15 K
x1 = 0.1038	–	–	0.352
x1 = 0.2009	–	–	0.3871
x1 = 0.3059	–	–	0.4245
x1 = 0.3949	–	–	0.4591
x1 = 0.4943	–	–	0.4944
x1 = 0.5946	–	–	0.5309
x1 = 0.6984	–	–	0.5671
x1 = 0.7956	–	–	0.6032
x1 = 0.8961	–	–	0.6352
x2 = 0.082	0.728	0.65	–
x2 = 0.1809	0.681	0.609	–
x2 = 0.267	0.642	0.577	–
x2 = 0.3853	0.587	0.529	–
x2 = 0.506	0.539	0.484	–
x2 = 0.5957	0.501	0.459	–
x2 = 0.6925	0.46	0.418	–
x2 = 0.8175	0.406	0.373	–
x2 = 0.9171	0.367	0.337	–

CCOP(=O)(OCC)OCC + CC(=O)N(C)C
298.15 K, 101.3 kPa
Details	viscosity [mPa·s]
x1 = 0.1085	0.997
x1 = 0.2118	1.066
x1 = 0.3173	1.133
x1 = 0.4275	1.199
x1 = 0.5277	1.257
x1 = 0.5946	1.294
x1 = 0.7173	1.36
x1 = 0.8144	1.41
x1 = 0.8998	1.456

N#CCCCCC#N + CC(=O)N(C)C
303.15 K, 101.33 kPa
Details	viscosity [mPa·s]
x1 = 0.0999	0.9801
x1 = 0.2976	1.363
x1 = 0.3998	1.666
x1 = 0.4988	2.029
x1 = 0.5898	2.42
x1 = 0.699	2.965
x1 = 0.8491	3.85

CCCCn1cc[n+](C)c1.F[P-](F)(F)(F)(F)F + CC(C)=O
Details	viscosity [mPa·s]
298.15 K, 101 kPa, x2 = 0.1935	88.9

COC(C)(C)C + CC(C)CC(C)(C)C
Details	viscosity [mPa·s]
298.15 K, 101.33 kPa, x1 = 0.125	0.4633
298.15 K, 101.33 kPa, x1 = 0.2442	0.4465
298.15 K, 101.33 kPa, x1 = 0.3612	0.4301
298.15 K, 101.33 kPa, x1 = 0.462	0.4159
298.15 K, 101.33 kPa, x1 = 0.5638	0.4012
298.15 K, 101.33 kPa, x1 = 0.6579	0.3878
298.15 K, 101.33 kPa, x1 = 0.7533	0.3739
298.15 K, 101.33 kPa, x1 = 0.8375	0.3611
298.15 K, 101.33 kPa, x1 = 0.9182	0.3483
303.15 K, 101 kPa, x1 = 0.1862	0.436
303.15 K, 101 kPa, x1 = 0.3104	0.423
303.15 K, 101 kPa, x1 = 0.3813	0.416
303.15 K, 101 kPa, x1 = 0.4961	0.404
303.15 K, 101 kPa, x1 = 0.6203	0.39
303.15 K, 101 kPa, x1 = 0.6609	0.386
303.15 K, 101 kPa, x1 = 0.8925	0.36

Clc1ccccc1 + CC(C)CO
viscosity [mPa·s], 101.33 kPa
Details	x1 = 0.101	x1 = 0.2015	x1 = 0.2966	x1 = 0.4019	x1 = 0.4952	x1 = 0.5979	x1 = 0.6965	x1 = 0.8009	x1 = 0.8977
298.15 K	2.558	1.975	1.593	1.301	1.124	0.9772	0.8803	0.8094	0.7666
313.15 K	1.663	1.336	1.128	0.9531	0.8497	0.7614	0.7035	0.6586	0.633
